Columns and labels:
[1] = Compound cytotoxicity, XTT-based colorimetric assay; assay type: cell-based; details: human, uninfected MT2 cells, day 4, XTT
Method in brief: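 Run under the antiviral-assay protocol but without virus. Viability was read on day 4 and CC50 values were derived from the readout.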

[2] = system: recombinant NL4-3 virus (nef section replaced with Renilla luciferase gene) in MT-2 cells; test: HIV cell culture assay (antiviral activity, luciferase readout); assay type: cell-based
Method in brief: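 Serial compound dilutions tested in MT-2 cells infected for 4-5 days with 293T-derived NL4-3 virus carrying Renilla luciferase in place of part of nef. Antiviral activity quantified as luciferase activity, read with a live-cell substrate.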

[3] = Renilla, NL43, MT-2 cells infected for 4-5 days with recombinant NL4-3 Renilla luciferase virus

Compound | CC50 at 4 days [1] | EC50 [2, 3] | EC50 ([2]; MT-2 cells infected for 4-5 days with recombinant NL4-3 Renilla luciferase virus)
CN(C(=O)[C@H](Cc1cc(F)cc(F)c1)NC(=O)NS(=O)(=O)Nc1cccnc1)c1ccc2scnc2c1 [CA-123] | > 100000 nM | 160 nM | –
CN(C(=O)[C@H](Cc1cc(F)cc(F)c1)NC(=O)NS(N)(=O)=O)c1ccc2scnc2c1 [VN-25] | 79600 nM | 150 nM | –
Cc1ccc(N(C)C(=O)[C@H](Cc2cc(F)cc(F)c2)NC(=O)NS(=O)(=O)N2CCc3cccnc32)cc1Cl [BB-20] | 60700 nM | 60 nM | –
CCCNS(=O)(=O)NC(=O)N[C@@H](Cc1cc(F)cc(F)c1)C(=O)N(C)c1ccc2scnc2c1 [CA-146] | > 100000 nM | 50 nM | –
COc1ccc(N(C)C(=O)[C@H](Cc2ccccc2)NC(=O)NS(=O)(=O)Nc2cccc(-c3cnco3)c2)cc1 [CA-27] | > 100000 nM | 310 nM | –
COc1ccc(N(C)C(=O)[C@H](Cc2ccccc2)NC(=O)NS(=O)(=O)Nc2ccc3c(c2)CCC3)cc1 [CA-11] | > 100000 nM | 70 nM | –
COc1ccc(N(C)C(=O)[C@H](Cc2ccccc2)NC(=O)NS(=O)(=O)Nc2ccc(Cl)cc2Cl)cc1 [CA-50] | > 100000 nM | 110 nM | –
CN(C(=O)[C@H](Cc1cc(F)cc(F)c1)NC(=O)NS(=O)(=O)N1CCc2cccnc21)c1ccc(Cl)cc1 [ZY-25] | 97100 nM | 30 nM | –
CN(C(=O)[C@H](Cc1cc(F)cc(F)c1)NC(=O)NS(=O)(=O)Nc1ccccc1)c1ccc2scnc2c1 [CA-115] | > 100000 nM | 60 nM | –
CCN(CC)S(=O)(=O)NC(=O)N[C@@H](Cc1cc(F)cc(F)c1)C(=O)N(C)c1ccc(OC(F)F)cc1 [BB-36] | > 100000 nM | 160 nM | –
CN(C(=O)[C@H](Cc1cc(F)cc(F)c1)NC(=O)NS(=O)(=O)N1CCc2cccnc21)c1ccc(Cl)c(C#N)c1 [BB-23] | > 100000 nM | 280 nM | –
COc1ccc(N(C)C(=O)[C@H](Cc2ccccc2)NC(=O)NS(=O)(=O)N2CCc3cc(OC)cc(C)c32)cc1 [CA-56] | > 100000 nM | 1310 nM | –
COc1ccc(N(C)C(=O)[C@H](Cc2ccccc2)NC(=O)NS(=O)(=O)Nc2ccc(S(=O)(=O)N3CCOCC3)cc2)cc1 [CA-44] | > 100000 nM | 620 nM | –
COc1ccc(N(C)C(=O)[C@H](Cc2ccccc2)NC(=O)NS(=O)(=O)Nc2cccc(OC(F)(F)F)c2)cc1 [CA-35] | 30300 nM | 380 nM | –
CN(C(=O)[C@H](Cc1cc(F)cc(F)c1)NC(=O)NS(=O)(=O)NCC(C)(C)C)c1ccc2scnc2c1 [CA-143] | > 100000 nM | 50 nM | –
COc1ccc(N(C)C(=O)[C@H](Cc2ccccc2)NC(=O)NS(=O)(=O)Nc2ccc(Cc3ccncc3)cc2)cc1 [CA-39] | > 100000 nM | 330 nM | –
COc1ccc(N(C)C(=O)[C@H](Cc2cc(F)cc(F)c2)NC(=O)NS(=O)(=O)N2CCc3cccnc32)cn1 [GW-11] | > 100000 nM | 90 nM | –
COc1ccc(N(C)C(=O)[C@H](Cc2ccccc2)NC(=O)NS(=O)(=O)N2CCc3ccccc3C2)cc1 [JB-7] | > 100000 nM | 200 nM | –
COc1ccc(N(C)C(=O)[C@H](Cc2ccccc2)NC(=O)NS(=O)(=O)Nc2ccc(Cl)cc2)cc1 [JB-22] | > 100000 nM | 70 nM | –
CN(C(=O)[C@H](Cc1cc(F)cc(F)c1)NC(=O)NS(=O)(=O)N1CCc2cccnc21)c1cccnc1 [GW-18] | > 100000 nM | 180 nM | –
COc1ccc(N(C)C(=O)[C@H](Cc2ccccc2)NC(=O)NS(=O)(=O)NCc2ccc3nc(C)[nH]c3c2)cc1 [JB-54] | > 100000 nM | 12000 nM | –
COC(=O)Nc1ccc(NS(=O)(=O)NC(=O)N[C@@H](Cc2ccccc2)C(=O)N(C)c2ccc(OC)cc2)cc1 [JB-62] | > 100000 nM | 290 nM | –
CN(C(=O)[C@H](Cc1cc(F)cc(F)c1)NC(=O)NS(=O)(=O)N1CC[C@H](O)C1)c1ccc2scnc2c1 [VN-26] | 20000 nM | 110 nM | –
COc1ccc(N(C)C(=O)[C@H](Cc2ccccc2)NC(=O)NS(=O)(=O)NC(C)c2cccc(C)n2)cc1 (some centres unmarked) [JB-58] | > 100000 nM | 690 nM | –
COc1ccc(N(C)C(=O)[C@H](Cc2ccccc2)NC(=O)NS(=O)(=O)Nc2ccc(NC(=O)N(C)C)cc2)cc1 [JB-52] | > 100000 nM | 5940 nM | –

Compound | CC50 at 4 days [1] | EC50 [2, 3] | EC50 ([2]; MT-2 cells infected for 4-5 days with recombinant NL4-3 Renilla luciferase virus)
COc1ccc(N(C)C(=O)[C@H](Cc2ccccc2)NC(=O)NS(=O)(=O)N2CCCc3ccccc32)cc1 [JB-2] | > 33300 nM | 110 nM | –
COc1ccc(N(C)C(=O)[C@H](Cc2ccccc2)NC(=O)NS(=O)(=O)Nc2ccc(C(C)=O)cc2)cc1 [CA-19] | > 100000 nM | 120 nM | –
Cc1cc(N(C)C(=O)[C@H](Cc2ccccc2)NC(=O)NS(=O)(=O)N2CCc3cccnc32)ccc1Cl [BB-6] | > 33300 nM | 340 nM | –
COc1ccc(N(C)C(=O)[C@H](Cc2ccccc2)NC(=O)NS(=O)(=O)Nc2cccc(Cl)c2)cc1 [JB-19] | > 100000 nM | 50 nM | –
COc1ccc(N(C)C(=O)[C@H](Cc2ccccc2)NC(=O)NS(=O)(=O)N(C)c2ccccc2C)cc1 [JB-18] | > 100000 nM | 560 nM | –
COc1ccc(N(C)S(=O)(=O)NC(=O)N[C@@H](Cc2cc(F)cc(F)c2)C(=O)N(C)c2ccc3scnc3c2)cn1 [CA-118] | > 100000 nM | 160 nM | –
CN(C(=O)[C@H](Cc1cc(F)cc(F)c1)NC(=O)NS(=O)(=O)N1CCC[C@H]1CO)c1ccc2scnc2c1 [CA-131] | > 100000 nM | 210 nM | –
Cc1ccc2c(n1)N(S(=O)(=O)NC(=O)N[C@@H](Cc1cc(F)cc(F)c1)C(=O)N(C)c1ccc3scnc3c1)CCC2 [VN-12] | > 50000 nM | 10 nM | –
COc1ccc(N(C)C(=O)[C@H](Cc2ccccc2)NC(=O)NS(=O)(=O)Nc2ccc3[nH]cnc3c2)cc1 [JB-36] | > 100000 nM | 2260 nM | –
COc1ccc(N(C)C(=O)[C@H](Cc2ccccc2)NC(=O)NS(=O)(=O)N(C)C)cc1 [JB-15] | > 100000 nM | 1920 nM | –
COc1ccc(N(C)C(=O)[C@H](Cc2ccccc2)NC(=O)NS(=O)(=O)Nc2cccc3ccccc23)cc1 [CA-4] | 89400 nM | 410 nM | –
COc1ccc(N(C)C(=O)[C@H](Cc2ccccc2)NC(=O)NS(=O)(=O)Nc2ccccc2C(N)=O)cc1 [CA-22] | > 100000 nM | 2510 nM | –
COc1ccc(N(C)C(=O)[C@H](Cc2cc(F)cc(F)c2)NC(=O)NS(=O)(=O)N2CCc3cccnc32)cc1 [BB-31] | > 33300 nM | 10 nM | –
COc1ccc(N(C)C(=O)[C@H](Cc2ccccc2)NC(=O)NS(=O)(=O)N(C)c2ccccc2Cl)cc1 [JB-6] | > 100000 nM | 660 nM | –
CCOc1ccc(N(CC)C(=O)[C@H](Cc2ccccc2)NC(=O)NS(=O)(=O)N2CCc3cc(OC)cc(C)c32)cc1 [JB-74] | > 100000 nM | 1120 nM | –
Cc1cc(N(C)C(=O)[C@H](Cc2cc(F)cc(F)c2)NC(=O)NS(=O)(=O)N2CCc3cccnc32)ccc1C#N [BB-15] | > 100000 nM | 460 nM | –
CC(C)CNS(=O)(=O)NC(=O)N[C@@H](Cc1cc(F)cc(F)c1)C(=O)N(C)c1ccc2scnc2c1 [CA-144] | > 100000 nM | 40 nM | –
COc1ccc(N(C)C(=O)[C@H](Cc2ccccc2)NC(=O)NS(=O)(=O)NCc2cnc3ccccc3c2)cc1 [JB-45] | > 50000 nM | 9450 nM | –
CCCc1ccc(N(C)C(=O)[C@H](Cc2cc(F)cc(F)c2)NC(=O)NS(=O)(=O)N2CCc3cccnc32)cc1 [BB-11] | 66300 nM | 10 nM | –
CN(C)C(=O)[C@H]1CCCN1S(=O)(=O)NC(=O)N[C@@H](Cc1cc(F)cc(F)c1)C(=O)N(C)c1ccc2scnc2c1 [BB-26] | > 100000 nM | 310 nM | –
CN(C(=O)[C@H](Cc1cc(F)cc(F)c1)NC(=O)NS(=O)(=O)N1CCc2cc(Br)cnc21)c1ccc2scnc2c1 [ZY-21] | > 100000 nM | 490 nM | –
CCOc1ccc(NS(=O)(=O)NC(=O)N[C@@H](Cc2ccccc2)C(=O)N(C)c2ccc(OC)cc2)cc1 [JB-81] | > 100000 nM | 260 nM | –
CN(C)C(=O)C1Cc2cccnc2N1S(=O)(=O)NC(=O)N[C@@H](Cc1cc(F)cc(F)c1)C(=O)N(C)c1ccc2scnc2c1 (single isomer, unassigned) [BB-28] | > 100000 nM | – | 6050 nM
CN(C(=O)[C@H](Cc1cc(F)cc(F)c1)NC(=O)NS(=O)(=O)N1CC(F)(F)C1)c1ccc2scnc2c1 [CA-130] | > 100000 nM | 450 nM | –

— patent publication US10221129B2, “Inhibitors of human immunodeficiency virus replication” (ViiV HEALTHCARE UK (NO.5) LIMITED, priority 2015, dated 2019)
